One data set relates to MCMV. The data set is described as follows: Plaque-reduction assay for MCMV. Type of data set: cell-based. To be noted: MEF. How it is done: Plaque-Reduction Assays for MCMV:
Mouse embryo fibroblast cells were prepared from mouse embryos using a procedure similar to that outlined above for HFF cells and suspended in tissue culture media as described above and seeded into plates and incubated. The medium was aspirated and the cell monolayers were infected with MCMV. The infected cells were then incubated at 37° C. for 1 h and the plates were rocked occasionally to ensure that the media covered the entire monolayer. Compounds were serially diluted in tissue maintenance cell culture media described above and the solutions were added to the infected monolayers. Infected monolayers were incubated for 7 d and then stained with Neutral Red solution as described above. Plaques were enumerated and EC50 values were interpolated from the experimental data by standard methods.
Mouse embryo fibroblast cells were prepared from mouse embryos using a procedure similar to that outlined above for HFF cells and suspended in tissue culture media as described above and seeded into 12 well plates and incubated at 37° C. for 24 h. The medium was aspirated and the cell monolayers were infected with the Smith strain of MCMV in a final volume of 0.2 mL in each of triplicate wells. The infected cells were then incubated at 37° C. for 1 h and the plates were rocked occasionally to ensure that the media covered the entire monolayer. […]
(In general: Plaque reduction counts the foci of infection that form in a cell layer.)

The next data set relates to HHV-8. The data set is described as follows: cells. To be noted: Homo sapiens, BCBL1; HHV-8, BCBL-1 cells. It counts as cell-based, human herpes virus 8.
The next data set has as its system VACV. The data set can be described thus: microbe, parasite or virus in culture. It counts as cell-based. To be noted: Orthopoxvirus vaccinia, HFF.
The next data set relates to ENTV-71. The data set is described as follows: microbe, parasite or virus in culture. Type of data set: cell-based. To be noted: Enterovirus, Vero 76; ENTV-71, Vero76 cells.
A further data set deals with Flu (H1N1). The data set is described as follows: microbe, parasite or virus in culture. As to conditions: Influenza A virus, MDCK cells. Type of data set: cell-based.
The test system of another data set is RVFV. The data set can be described thus: microbe, parasite or virus in culture. It counts as cell-based. To be noted: Rift Valley fever virus, Vero 76.
The test system of the next data set is VEEV. The data set can be described thus: microbe, parasite or virus in culture. It counts as cell-based. As to conditions: Venezuelan equine encephalitis virus, Vero 76.
Data set [1] in a line: Parallel cytotoxicity assay in 293TT cells. It counts as cell-based. To be noted: human, parallel to JCV assay. How it is done:
Every antiviral assay included a parallel cytotoxicity assay with the same cells used for each virus, the same cell number, the same drug concentrations, and the same incubation times to provide the same drug exposure. To ensure that the cytotoxicity of all compounds could be compared directly, a standard neutral red uptake cytotoxicity assay for all compounds in confluent HFF cells with a 7 d incubation period was performed.

Data set [2] is described as follows: Solubility in water (rework study). It counts as physicochemical. How it is done: A brief rework study for compound 1, (containing 1.6% benzoic acid per AUC, HPLC) was executed in 10 vol of water (1 g in 10 mL):
All three experiments gave compound 1 with less than 0.1% benzoic acid (UAC, HPLC). The slurries were fluid, were easily stirred and filtration was fast. […] Without wishing to be bound by theory, a loss of NMT than 1% is expected (solubility 1 mg/mL). HPLC data for compound 1 were obtained with a method suitable for polar compounds using a Zorbax Eclipse Plus C18 column (water/ACN/TFA, 97.5/2.5/0.05). This is the same column used for steps 1 and 2.

The nature of the next data set: in vitro. As to conditions: dog.

Values after ≈ are worked out from the molar mass of the structure shown. Like-named read-outs stand apart in the source and are kept apart here.

The EC50 is the concentration giving half of the maximal effect. A word on the solubility: it is the dissolved amount per volume that the medium holds. `Cc1nc(N)c2c(C(N)=O)cn([C@@H]3O[C@H](CO)[C@@H](O)[C@H]3O)c2n1` [Compound 1, 4-amino-7-((2R,3R,4S,5R)-3,4-dihydroxy-5-(hydroxymethyl)tetrahydrofuran-2-yl)-2-methyl-7H-pyrrolo[2,3-d]pyrimidine-5-carboxamide]: the EC50 with MCMV was above 100 µM; in the data set on HHV-8 it was above 12 µM; in the data set with VACV, 56.2 µM; with ENTV-71 it was above 100 µM; with Flu (H1N1) it was above 100 µM; in the data set with RVFV it was above 100 µM. In the data set with VEEV, this compound returned an EC50 above 100 µM. For the same compound, the CC50 is above 60 µM in data set [1]; above 100 µM in the data set on Vero76 (African green monkey); above 100 µM in the data set with Vero76 (Vero76 cells, parallel to DENV-2 assay); above 100 µM in the data set with Vero76 (Vero76 cells, parallel to ENTV-71 assay); above 100 µM in the data set on Vero76 (Vero76 cells, parallel to POV-3 assay); above 100 µM in the data set on Vero76 (Vero76 cells, parallel to WNV assay). The compound further showed a CC50 in the data set “in vitro” above 100 µM. The compound further had a solubility in data set [2] of 1000 µg/mL (≈ 3.09 mM).

The values are drawn from US9708359B2, “Pyrrolopyrimidine nucleosides and analogs thereof” (Chimerix, Inc., priority 2015, dated 2017).
